# Test results from PMC6930675, “Discovery and Characterisation of Dual Inhibitors of Tryptophan 2,3-Dioxygenase (TDO2) and Indoleamine 2,3-Dioxygenase 1 (IDO1) Using Virtual Screening” (Molecules, 2019).
# “And” between values parts separate entries of the source, which are not always exact repeats. Equal entries are not always repeated.
# Columns and labels:
# [1] = test system: TDO2; design: method as in PMID 27096472, PMID 28105265, PMID 26348881, PMID 22616902; conditions: cited from earlier work; for IC50: test library, read-out: IC50 (TDO2 active compounds of the test library)
# [2] = biological target: T1, IDO1 (SKOV3 cells) (Homo sapiens, UniProt P14902); assay: Cell based kynurenine assay in SKOV3 ovarian line (IDO1 expressor); conditions: for IC50: SKOV3 (IDO1), 18 h, read-out: IC50, inhibition of kynurenine secretion
# T1 construct: identify cell lines endogenously expressing only IDO1, only TDO2, and both enzymes simultaneously; endogenous in cells; host or cells: SKOV3 ovarian cancer cell line
# Method: (§1) Breast cancer cell lines MCF7, MDA-MB-231, BT549, Hs578T; ovarian cell line SKOV3; glioblastoma cell line A172 and lung cancer cell line H460 were grown in α-MEMGibco, Grand Island, NY, USA; ThermoFisher catalogue number 12000022) containing 5% foetal calf serum (Moregate Biotech, Hamilton, New Zealand), insulin/transferrin/selenium supplement (Roche, Ref-11074547001), added according to the manufacturer’s instructions, as well as penicillin/streptomycin (100 U/mL and 100 μg/mL, respectively). The amount of kynurenine produced by the cells was measured as described previously. Briefly, a well of a 96-well plate received 3.7 × 10^4 cells which were subsequently cultured with the addition of 50 μM ([…] and SKOV3 cells) or 100 μM (A172 cells) of L-tryptophan (Sigma-Aldrich, St Louis, MO, USA) with or without test compounds at 37 °C, 5% CO2 for 18 h. The cell number seeded was optimised to produce levels of kynurenine <40% of initial tryptophan to avoid tryptophan starvation and to ensure steady-state IDO1/TDO2 kinetics. Next, the culture supernatants were transferred into a fresh 96-well plate, incubated with trichloroacetic acid (10% final concentration) for 20 min at 60 °C to release kynurenine from the cells and precipitate proteins. After spinning the plates for 20 min at 2500 g, the supernatants were mixed at a 1:1 ratio with 4-(dimethylamino)benzaldehyde (20 mg/mL in acetic acid; Sigma) and the absorbance was read at 480 nm on an EnSpire 2300 Multimode Plate Reader (Perkin-Elmer, Singapore, Singapore). The remaining cells in the 96-well plate received a well-established indicator of cellular metabolic activity WST-1 (Roche Diagnostics Cat No 05015944, Basel, Switzerland; 10% diluted in culture media). After 1 h of incubation at 37 °C, the absorbance was measured at 440 nm. WST-1 is reduced on the outer membrane of viable cells to a soluble formazan by reducing equivalents such as NAD(P)H. The absorbance measured at 440 nm indicates the number of metabolically active cells in the culture and represents a surrogate marker of cell viability.
# (§2) All experiments were repeated independently at least twice in technical quadruplicates. Calculations and graph plotting were performed in Prism (v8, 2018; GraphPad software, San Diego, CA, USA) and R computing environment (v3.5.3, 2019, 64-bit, Vienna, Austria). IC50 of the compounds in cellular enzymatic activity compared to untreated control cells was determined by fitting data to an equation f(x) = A + B/(1 + (IC50/X)^HILL) in Prism; where A is the minimum and B is the maximum of the curve, HILL is the slope of the curve and X is the compound concentration.
# [3] = test system: IDO1/TDO2 (SKOV3 and BT549 cell lines); assay: Single-concentration test of virtual hits for inhibition of kynurenine secretion in SKOV3 and BT549; assay type: cell-based, human; conditions: 20 µM
# Method: as §1, with “Next, the culture supernatants were transferred into a fresh 96-well plate, incubated with trichloroacetic acid (10% final concentration) for 20 min at 60 °C to release kynurenine from the cells and precipitate proteins.” left out, “The remaining cells in the 96-well plate received a well-established indicator of cellular metabolic activity WST-1 (Roche Diagnostics Cat No 05015944, Basel, Switzerland; 10% diluted in culture media).” left out
# as §2, with “Calculations and graph plotting were performed in Prism (v8, 2018; GraphPad software, San Diego, CA, USA) and R computing environment (v3.5.3, 2019, 64-bit, Vienna, Austria).” left out
# [4] = test system: IDO1/TDO2 (BT549 cells); assay: Cell based kynurenine assay in BT549 breast line (dual IDO1/TDO2 expressor); design: species or system human
# Method: (§3) Breast cancer cell lines MCF7, MDA-MB-231, BT549, Hs578T; ovarian cell line SKOV3; glioblastoma cell line A172 and lung cancer cell line H460 were grown in α-MEMGibco, Grand Island, NY, USA; ThermoFisher catalogue number 12000022) containing 5% foetal calf serum (Moregate Biotech, Hamilton, New Zealand), insulin/transferrin/selenium supplement (Roche, Ref-11074547001), added according to the manufacturer’s instructions, as well as penicillin/streptomycin (100 U/mL and 100 μg/mL, respectively). The amount of kynurenine produced by the cells was measured as described previously. […] After spinning the plates for 20 min at 2500 g, the supernatants were mixed at a 1:1 ratio with 4-(dimethylamino)benzaldehyde (20 mg/mL in acetic acid; Sigma) and the absorbance was read at 480 nm on an EnSpire 2300 Multimode Plate Reader (Perkin-Elmer, Singapore, Singapore). […] After 1 h of incubation at 37 °C, the absorbance was measured at 440 nm. WST-1 is reduced on the outer membrane of viable cells to a soluble formazan by reducing equivalents such as NAD(P)H. The absorbance measured at 440 nm indicates the number of metabolically active cells in the culture and represents a surrogate marker of cell viability. […]
# [5] = biological target: T2, TDO2 (A172 cells) (Homo sapiens, UniProt P48775); assay: Cell based kynurenine assay in A172 glioblastoma line (TDO2 expressor); conditions: 18 h, read-out: IC50, inhibition of kynurenine secretion
# T2 construct: identify cell lines endogenously expressing only IDO1, only TDO2, and both enzymes simultaneously; endogenous in cells; host or cells: A172 glioblastoma cell line
# Method: as §3
# [6] = test system: BT549 and SKOV3 cell lines; assay: WST-1 assay of cellular metabolic activity / cell viability; assay type: cell-based, human; conditions: 20 µM; asterisks in Figure 6A
# Method: Breast cancer cell lines MCF7, MDA-MB-231, BT549, Hs578T; ovarian cell line SKOV3; glioblastoma cell line A172 and lung cancer cell line H460 were grown in α-MEMGibco, Grand Island, NY, USA; ThermoFisher catalogue number 12000022) containing 5% foetal calf serum (Moregate Biotech, Hamilton, New Zealand), insulin/transferrin/selenium supplement (Roche, Ref-11074547001), added according to the manufacturer’s instructions, as well as penicillin/streptomycin (100 U/mL and 100 μg/mL, respectively). The amount of kynurenine produced by the cells was measured as described previously. […] After spinning the plates for 20 min at 2500 g, the supernatants were mixed at a 1:1 ratio with 4-(dimethylamino)benzaldehyde (20 mg/mL in acetic acid; Sigma) and the absorbance was read at 480 nm on an EnSpire 2300 Multimode Plate Reader (Perkin-Elmer, Singapore, Singapore). […] After 1 h of incubation at 37 °C, the absorbance was measured at 440 nm. WST-1 is reduced on the outer membrane of viable cells to a soluble formazan by reducing equivalents such as NAD(P)H. The absorbance measured at 440 nm indicates the number of metabolically active cells in the culture and represents a surrogate marker of cell viability.
# T1 sequence (P14902 whole entry): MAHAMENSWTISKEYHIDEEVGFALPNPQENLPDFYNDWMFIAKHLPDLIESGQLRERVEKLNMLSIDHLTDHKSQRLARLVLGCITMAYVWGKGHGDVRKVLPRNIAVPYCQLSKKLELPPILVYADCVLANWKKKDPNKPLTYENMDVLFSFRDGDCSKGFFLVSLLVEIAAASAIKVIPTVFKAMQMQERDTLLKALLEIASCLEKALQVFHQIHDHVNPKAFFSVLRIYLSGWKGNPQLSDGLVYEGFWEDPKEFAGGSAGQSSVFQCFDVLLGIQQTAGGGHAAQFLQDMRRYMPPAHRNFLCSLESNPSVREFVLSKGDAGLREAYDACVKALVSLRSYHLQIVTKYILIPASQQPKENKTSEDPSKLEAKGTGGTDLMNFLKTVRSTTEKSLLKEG
# T2 sequence (P48775 whole entry): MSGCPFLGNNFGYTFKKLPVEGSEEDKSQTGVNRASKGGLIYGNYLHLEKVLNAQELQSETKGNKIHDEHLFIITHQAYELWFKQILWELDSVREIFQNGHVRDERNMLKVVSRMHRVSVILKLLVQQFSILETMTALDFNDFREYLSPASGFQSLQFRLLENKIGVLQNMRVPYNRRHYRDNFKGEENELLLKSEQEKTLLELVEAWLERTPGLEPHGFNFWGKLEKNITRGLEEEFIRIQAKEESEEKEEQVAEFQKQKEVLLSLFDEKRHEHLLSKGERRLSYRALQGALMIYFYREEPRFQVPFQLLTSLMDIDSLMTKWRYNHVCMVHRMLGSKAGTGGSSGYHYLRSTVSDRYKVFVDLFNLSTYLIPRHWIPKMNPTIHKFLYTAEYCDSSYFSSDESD
smiles,measurement,setting,value
CC1c2cc(-c3c[nH]c4cc(F)ccc34)ccc2S(=O)(=O)N1CC(N)=O (centres unmarked) [1a],IC50,[1],0.026 µM
C[C@H]1NS(=O)(=O)c2ccc(-c3c[nH]c4cc(F)ccc34)cc21 [1b],IC50,[1],0.027 µM
O=S1(=O)NC(CO)c2cc(-c3c[nH]c4cc(F)ccc34)ccc21 (centres unmarked) [1d],IC50,[1],0.043 µM
O=C1c2ccccc2C(=O)c2c1nnn2Cc1cccc(C(=O)N2CCOCC2)c1 [1e],IC50,[1],0.048 µM
Nc1cccc(-c2c[nH]nn2)c1 [2a],Activity class in the TDO2 test library,[1],inactive
Brc1cccc(-c2c[nH]nn2)c1 [2b],Activity class in the TDO2 test library,[1],inactive
FC(F)(F)c1cc(-c2c[nH]nn2)ccn1 [2c],Activity class in the TDO2 test library,[1],inactive
O=C1Nc2ccccc2/C1=N\Nc1nc2ccccc2s1 [2d],Activity class in the TDO2 test library,[1],inactive
O=C(CC1(O)C(=O)Nc2c(Cl)cc(Cl)cc21)c1ccc(Cl)cc1 (centres unmarked) [2e],Activity class in the TDO2 test library,[1],inactive
Nc1nonc1/C(=N/O)Nc1ccc(F)c(Cl)c1 [5L],"Inhibition of kynurenine production, in words","[2]; SKOV3, at 1 µM",completely inhibited
Fc1ccc2c(/C=C\c3cccnc3)c[nH]c2c1 [680C91],"Effect on kynurenine production, in words",[2]; SKOV3,barely affected
COc1ccccc1C(=O)CC(=O)c1ccc(C)cc1O [TD12],Inhibition of kynurenine secretion,[3],50% ± 20
Cc1ccc(C(=O)CC(=O)c2ccccc2OC(C)C)c(O)c1 [TD18],IC50,[2],28.9 µM
same,Inhibition of kynurenine secretion,[3],50% ± 20
CC1=C(CC(=O)c2sccc2Br)C(=O)c2ccccc2C1=O [TD34],IC50,[2],47.3 µM and ~40 µM
same,IC50,"[4]; BT549 (IDO1/TDO2), 18 h, read-out: IC50, inhibition of kynurenine secretion",3.42 µM
same,Fold higher potency in BT549 than in A172 and SKOV3,[4]; BT549 versus A172 / SKOV3,more than 10 fold
same,IC50,[5],37.7 µM and ~40 µM
same,"Inhibition of kynurenine production, in words",[3],inhibited kynurenine production
same,Toxicity to the BT549 and SKOV3 cell lines,[6],absence of cell toxicity
